Test: xn = mol fraction of the nth substance listed
Conditions: 313.15 K, Fluid (supercritical or subcritical phases), x1 = 0.97; for mass density: Vibrating tube method; for speed of sound: Frequency=5 MHz, Pulse-echo method

O=C=O [carbon dioxide] + CO
Conditions	mass density [kg/m3]	speed of sound [m/s]
17250 kPa	821	–
17275 kPa	821.23	–
17300 kPa	821.48	–
17325 kPa	821.73	–
17350 kPa	821.98	–
17375 kPa	822.18	–
17400 kPa	822.42	–
17425 kPa	822.65	–
17450 kPa	822.87	–
17475 kPa	823.11	–
17500 kPa	823.28	–
17525 kPa	823.52	–
17550 kPa	823.71	–
17575 kPa	823.99	–
17600 kPa	824.21	–
17625 kPa	824.46	–
17650 kPa	824.71	–
17675 kPa	824.95	–
17700 kPa	825.17	–
17725 kPa	825.45	–
17750 kPa	825.67	–
17775 kPa	825.94	–
17800 kPa	826.17	–
17825 kPa	826.41	–
17850 kPa	826.64	–
17875 kPa	826.87	–
17900 kPa	827.14	–
17925 kPa	827.38	–
17950 kPa	827.61	–
17975 kPa	827.85	–
18000 kPa	828.1	–
18025 kPa	828.35	–
18050 kPa	828.6	–
18075 kPa	828.84	–
18100 kPa	829.11	–
18125 kPa	829.36	–
18150 kPa	829.59	–
18175 kPa	829.87	–
18200 kPa	830.13	–
18225 kPa	830.35	–
18250 kPa	830.62	–
18275 kPa	830.86	–
18300 kPa	831.12	–
18325 kPa	831.37	–
18350 kPa	831.62	–
18375 kPa	831.85	–
18400 kPa	832.11	–
18425 kPa	832.31	–
18450 kPa	832.53	–
18475 kPa	832.8	–
18500 kPa	833.03	–
18525 kPa	833.28	–
18550 kPa	833.5	–
18575 kPa	833.75	–
18600 kPa	833.97	–
18625 kPa	834.2	–
18650 kPa	834.43	–
18675 kPa	834.69	–
18700 kPa	834.94	–
18725 kPa	835.15	–
18750 kPa	835.38	–
18775 kPa	835.62	–
18800 kPa	835.84	–
18825 kPa	836.06	–
18850 kPa	836.28	–
18875 kPa	836.55	–
18900 kPa	836.78	–
18925 kPa	837.02	–
18950 kPa	837.22	–
18975 kPa	837.47	–
19000 kPa	837.72	–
19025 kPa	837.93	–
19050 kPa	838.15	–
19075 kPa	838.38	–
19100 kPa	838.61	–
19125 kPa	838.87	–
19150 kPa	839.12	–
19175 kPa	839.32	–
19200 kPa	839.61	–
19225 kPa	839.82	–
19250 kPa	840.03	–
19275 kPa	840.27	–
19300 kPa	840.49	–
19325 kPa	840.71	–
19350 kPa	840.94	–
19375 kPa	841.18	–
19400 kPa	841.4	–
19425 kPa	841.61	–
19450 kPa	841.84	–
19475 kPa	842.08	–
19500 kPa	842.31	–
19525 kPa	842.53	–
19550 kPa	842.75	–
19575 kPa	842.96	–
19600 kPa	843.19	–
19625 kPa	843.37	–
19650 kPa	843.59	–
19675 kPa	843.84	–
19700 kPa	844.02	–
19725 kPa	844.25	–
19750 kPa	844.43	–
19775 kPa	844.64	–
19800 kPa	844.89	–
19825 kPa	845.06	–
19850 kPa	845.27	–
19875 kPa	845.47	–
19900 kPa	845.69	–
19925 kPa	845.91	–
19950 kPa	846.1	–
19975 kPa	846.29	–
20000 kPa	846.53	–
31890 kPa	–	648.6
34940 kPa	–	674.9
39990 kPa	–	714.5
44940 kPa	–	749.7
49940 kPa	–	782
54960 kPa	–	812.2
60140 kPa	–	841.3
65170 kPa	–	867.7
70010 kPa	–	891.8
75170 kPa	–	916.2
80060 kPa	–	938.2
